Earlier results on one compound are cited in patent publication US20070213318A1, “C[…] WITH IMPROVED BLOOD-BRAIN BARRIER PE[…] THE TREATMENT OF DISEASES ACCOMPANIED BY COGNITIVE IMPAIRMENT” (priority 2006, published 2007).

Read-outs that look alike come from different tables or passages of the source.

Data set [1] has as its system human nAChR subtypes. To be noted: below the concentration range at which AChE inhibition takes place.

For the compound `COc1ccc2c3c1O[C@H]1C[C@@H](O)C=C[C@@]31CCN(C)C2` [Galanthamine], the “tissue to plasma ratio (T/P)” value is roughly 20 (female rat spleen); 10-15 (male and female rat, kidney); 7-14 (male and female rat, salivary and adrenal gland); 2-4 (rat, lung, liver, heart, skeletal muscle and testes). In addition, the “concentrations at which the APL effect is observed” value in data set [1] is given as “submicromolar concentrations”.
